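Five compound concentrations were applied to cells in 96-well plates for 48 hours; endpoints were derived by simple linear interpolation of the resulting dose-response curve. Abbreviation: GI50, concentration required for 50% inhibition of growth.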 Activity calls are given as the source filed them. No stated cut-off is given here; in the data, active = GI50 up to about 1.1 µM and inactive = higher.
Columns and labels:
Experiment in all cases: NCI tumour cell line growth inhibition, 48 h
RPMI-8226 = tested on: RPMI-8226
SNB-75 = tested on: SNB-75
SK-OV-3 = tested on: SK-OV-3
U-251 = tested on: U-251
HOP-92 = tested on: HOP-92
LXFL 529 = tested on: LXFL 529
K562 = tested on: K562
CCRF-CEM = tested on: CCRF-CEM
LOX IMVI = tested on: LOX IMVI
M14 = tested on: M14
OVCAR-4 = tested on: OVCAR-4
IGROV-1 = tested on: IGROV-1
SR = tested on: SR
SNB-19 = tested on: SNB-19
NCI-H23 = tested on: NCI-H23
SK-MEL-2 = tested on: SK-MEL-2
SF-295 = tested on: SF-295
UACC-257 = tested on: UACC-257
OVCAR-5 = tested on: OVCAR-5

| Structure (SMILES) | GI50 (RPMI-8226) | GI50 (SNB-75) | GI50 (SK-OV-3) | GI50 (U-251) | GI50 (HOP-92) | GI50 (LXFL 529) | GI50 (K562) | GI50 (CCRF-CEM) | GI50 (LOX IMVI) | GI50 (M14) | GI50 (OVCAR-4) | GI50 (IGROV-1) | GI50 (SR) | GI50 (SNB-19) | GI50 (NCI-H23) | GI50 (SK-MEL-2) | GI50 (SF-295) | GI50 (UACC-257) | GI50 (OVCAR-5) |
| --- | --- | --- | --- | --- | --- | --- | --- | --- | --- | --- | --- | --- | --- | --- | --- | --- | --- | --- | --- |
| COc1ccc(-c2cc(O)c3cc4c(cc3n2)OCO4)c(OC)c1 | 28.3 µM (inactive) | 4.4 µM (inactive) | 87.3 µM (inactive) | 59.4 µM (inactive) | 82 µM (inactive) | 45.7 µM (inactive) | 32 µM (inactive) | 34.4 µM (inactive) | 47.9 µM (inactive) | 33.5 µM (inactive) | 71.1 µM (inactive) | > 100 µM (inactive) | 22.1 µM (inactive) | 67.6 µM (inactive) | 70.3 µM (inactive) | 55.1 µM (inactive) |  |  |  |
| COc1cc2c(c(OC)c1OC)-c1ccc(SC)c(=O)cc1[C@@H](NC(=O)c1ccc(F)cc1)CC2 | 0.0498 µM (active) | 0.07 µM (active) | 0.0294 µM (active) | 0.0428 µM (active) | 0.0281 µM (active) | 0.0356 µM (active) | 0.0284 µM (active) | < 0.01 µM (active) | 0.0501 µM (active) | 0.0378 µM (active) | 6.59 µM (inactive) | 0.0594 µM (active) |  |  | 0.0417 µM (active) | 0.0407 µM (active) | 0.0327 µM (active) | < 0.01 µM (active) | 48.1 µM (inactive) |
| CC(C)=CC1CCc2ccccc2N1S(=O)(=O)c1ccc(C)cc1 (stereo unspecified) | 1.32 µM (inactive) | 1.17 µM (inactive) | 1.7 µM (inactive) | 1.19 µM (inactive) | 0.433 µM (active) | 2.36 µM (inactive) | 0.59 µM (active) | 0.373 µM (active) | 1.68 µM (inactive) | 1.27 µM (inactive) | 4.31 µM (inactive) | 2.4 µM (inactive) |  | 3.46 µM (inactive) | 1.4 µM (inactive) | 1.79 µM (inactive) | 1.5 µM (inactive) | 2.27 µM (inactive) | 14.8 µM (inactive) |
| N/N=C1/C(=O)N(c2ccc(Cl)cc2)C(=O)C(=O)C1c1nc2ccccc2s1 (stereo unspecified) | > 100 µM (inactive) | > 65.6 µM (inactive) | > 100 µM (inactive) | > 100 µM (inactive) | > 100 µM (inactive) | > 100 µM (inactive) | 60.3 µM (inactive) | 74.6 µM (inactive) | > 100 µM (inactive) | > 100 µM (inactive) | > 100 µM (inactive) | > 100 µM (inactive) |  | > 100 µM (inactive) | > 100 µM (inactive) | > 100 µM (inactive) | > 100 µM (inactive) | > 100 µM (inactive) | > 100 µM (inactive) |
| COC(=O)CCc1cccnc1/C=N/O |  | > 100 µM (inactive) | > 100 µM (inactive) | > 100 µM (inactive) | > 100 µM (inactive) | > 100 µM (inactive) | > 100 µM (inactive) | 96.4 µM (inactive) | > 100 µM (inactive) | > 100 µM (inactive) | > 100 µM (inactive) | > 100 µM (inactive) | > 100 µM (inactive) | > 100 µM (inactive) | > 100 µM (inactive) | > 100 µM (inactive) | > 100 µM (inactive) | > 100 µM (inactive) | > 100 µM (inactive) |
| C=CCCCCC1CCC2CCC(CCCCC=C)N12 (stereo unspecified) | 16.1 µM (inactive) | 28.1 µM (inactive) |  | 20 µM (inactive) | 10.3 µM (inactive) | 14 µM (inactive) | 12.1 µM (inactive) | 11.6 µM (inactive) |  | 15.4 µM (inactive) | 13 µM (inactive) |  | 14.2 µM (inactive) | 19 µM (inactive) |  | 10.7 µM (inactive) | 13.4 µM (inactive) | 15.2 µM (inactive) |  |
| O=C(Nc1ccccc1)O/N=C1/CCCC/C1=C\c1ccccc1 | 16.5 µM (inactive) | 13.9 µM (inactive) | 20.3 µM (inactive) | 16.2 µM (inactive) | 22.9 µM (inactive) | 8.49 µM (inactive) | 10 µM (inactive) | 10.7 µM (inactive) | 18.9 µM (inactive) | 17.8 µM (inactive) | 14.8 µM (inactive) | 3.55 µM (inactive) | 16.1 µM (inactive) |  | 26 µM (inactive) | 15 µM (inactive) | 16.1 µM (inactive) | 19.5 µM (inactive) | 26.2 µM (inactive) |
| Cc1c(C(=O)/C=C/c2ccccc2Cl)[n+]([O-])c2ccccc2[n+]1[O-] | 11.9 µM (inactive) | 16.4 µM (inactive) | 20.4 µM (inactive) | 14.3 µM (inactive) | 15.3 µM (inactive) | 7.08 µM (inactive) | 5.53 µM (inactive) |  |  | 15.2 µM (inactive) | 12.1 µM (inactive) | 15 µM (inactive) | 16.6 µM (inactive) | 17.3 µM (inactive) | 14.5 µM (inactive) | 13.6 µM (inactive) | 14.7 µM (inactive) | 13.4 µM (inactive) | 20.9 µM (inactive) |
| CN/N=C(/CC(=O)c1sc(-n2nc(-c3ccccc3)cc2-c2ccccc2)nc1C)C(=O)Nc1ccc(Cl)c(Cl)c1 | 40.1 µM (inactive) |  | 24.6 µM (inactive) | 24.6 µM (inactive) | 14.1 µM (inactive) | 26.3 µM (inactive) | 20.4 µM (inactive) | 27.7 µM (inactive) | 22.5 µM (inactive) |  | 52.6 µM (inactive) | 61 µM (inactive) | 29.3 µM (inactive) | > 100 µM (inactive) | 23.7 µM (inactive) | > 100 µM (inactive) | 25.3 µM (inactive) | 30.6 µM (inactive) | 16.1 µM (inactive) |
| CC1NOC(=O)C1/N=N/c1ccccc1Br (stereo unspecified) | 28.8 µM (inactive) | 31.4 µM (inactive) | 38.1 µM (inactive) | 22.4 µM (inactive) | 24 µM (inactive) | 15.7 µM (inactive) | 22.9 µM (inactive) | 25.8 µM (inactive) | 23.9 µM (inactive) | 21.4 µM (inactive) | 39.3 µM (inactive) | 36 µM (inactive) | 25.1 µM (inactive) | 37.4 µM (inactive) | 22.6 µM (inactive) | 16.2 µM (inactive) | 40.7 µM (inactive) | 24 µM (inactive) | 40.7 µM (inactive) |
| COc1ccccc1NC(=O)C1=C(C)NC(C)=C(C(=O)Nc2ccccc2OC)C1c1ccccc1F | 62.1 µM (inactive) | 18 µM (inactive) | > 100 µM (inactive) | 90.8 µM (inactive) | 79.3 µM (inactive) | 57.5 µM (inactive) | 36.2 µM (inactive) | 54.3 µM (inactive) | > 100 µM (inactive) | > 100 µM (inactive) | > 100 µM (inactive) | > 100 µM (inactive) | 64.7 µM (inactive) | > 100 µM (inactive) | > 100 µM (inactive) | 55.8 µM (inactive) | > 100 µM (inactive) | > 100 µM (inactive) | > 100 µM (inactive) |
| CNC(=O)OCc1nc(SC(C)C)n(C)c1COC(=O)NC | > 71.1 µM (inactive) | > 100 µM (inactive) | > 100 µM (inactive) | > 100 µM (inactive) | > 100 µM (inactive) | > 100 µM (inactive) | > 69.8 µM (inactive) | 48.5 µM (inactive) | > 100 µM (inactive) | > 100 µM (inactive) | > 100 µM (inactive) | > 100 µM (inactive) | > 100 µM (inactive) | > 100 µM (inactive) | > 100 µM (inactive) | > 100 µM (inactive) | > 100 µM (inactive) | > 100 µM (inactive) | > 100 µM (inactive) |
| O=C1CCCCC/C=C2/CC[C@H](Sc3ccccc3)[C@@H]12 | > 100 µM (inactive) | 36.8 µM (inactive) | 82.2 µM (inactive) | 80.7 µM (inactive) |  | > 100 µM (inactive) | > 100 µM (inactive) | 6.27 µM (inactive) | 43 µM (inactive) | > 100 µM (inactive) | > 100 µM (inactive) |  | 55.2 µM (inactive) | 73.8 µM (inactive) | 83 µM (inactive) | 71.9 µM (inactive) | 40.6 µM (inactive) | > 100 µM (inactive) |  |
| [O-][S+]1c2ccc(Cl)cc2CC(SSC2Cc3cc(Cl)ccc3[S+]([O-])c3ccccc32)c2ccccc21 (stereo unspecified) | > 100 µM (inactive) | > 100 µM (inactive) | > 100 µM (inactive) | > 100 µM (inactive) | > 100 µM (inactive) | > 100 µM (inactive) | > 100 µM (inactive) | > 100 µM (inactive) | > 100 µM (inactive) | > 100 µM (inactive) | > 100 µM (inactive) | > 100 µM (inactive) |  | > 100 µM (inactive) | > 100 µM (inactive) | > 100 µM (inactive) | > 100 µM (inactive) | > 100 µM (inactive) | > 100 µM (inactive) |
| CC12CCC(C)(c3cc(O)c(O)cc31)c1cc(O)c(O)cc12 | 8.51 µM (inactive) | 11.6 µM (inactive) | 19.2 µM (inactive) |  | 10.7 µM (inactive) | 8.47 µM (inactive) | 7.06 µM (inactive) | 2.92 µM (inactive) | 16.4 µM (inactive) | 17.2 µM (inactive) | 14.6 µM (inactive) | 20.3 µM (inactive) |  | 15.5 µM (inactive) | 27 µM (inactive) | 32.6 µM (inactive) | 22 µM (inactive) | 15.3 µM (inactive) | 22.3 µM (inactive) |
